Patent US20240010684A1, “MASP INHIBITORY COMPOUNDS AND USES THEREOF” (BAYER AKTIENGESELLSCHAFT, priority 2020, published 2024)
*1 amine or outer side, *2 acyl side, *3 side chain or, on linkers, in order; H or OH if unused. Where a SMILES comes first, the peptide text is derived from it. Bridges are numbered along the chain shown (N, C = ends). [ ]: non-standard residue; d: D form. X6 = O=C(CCC(=O)[*:1])NCCCOCCOCCOCCCN[*:2]; Oic = O=C(O)[C@@H]1C[C@@H]2CCCC[C@@H]2N1; tBuAla = CC(C)(C)C[C@H](N)C(=O)O; Pen = CC(C)(S)[C@H](N)C(=O)O; Orn = NCCC[C@H](N)C(=O)O; Abu = CC[C@H](N)C(=O)O; Ahx = NCCCCCC(=O)O; Sar = CNCC(=O)O

How the values were obtained:
[1] = molecular target: human MASP1 (Homo sapiens (Human), UniProt P48740); test: Biochemical human MASP1 assay (FRET substrate); conditions: Average IC50; recombinant human MASP1; read-out: human MASP1 IC50
Source text: A truncated cDNA sequence of human MASP1 encoding the fragment corresponding to the amino acids 297-699 with a C-terminal His Tag and N-terminal Ig-kappa secretion signal (SEQ ID No: 2) was subcloned into the mammalian expression vector pcDNA3.1 (Invitrogen).
The MASP1 or MASP2 expression vectors were transfected into the HEK293 (ATCC No. CRL-1573) cell line using Lipofectamine LTX® Reagent (Thermo-Fischer), as described by the manufacturer. The mature form of the recombinant human MASP1 and MASP2 proteases were secreted into the culture medium. The MASP1 and MASP2 proteins were purified from the conditioned media by affinity chromatography on Ni-NTA Superflow resin (Qiagen) as described by the manufacturer.
2.2 Biochemical Human MASP1 Assay
Recombinant human MASP1 enzyme produced in the HEK 293 cells was diluted in the reaction buffer (50 mM HEPES pH 8,0; 100 mM NaCl; 0,01% CHAPS; 0.5 mM Gluthathione) to the concentration of 20 nM and 25 μl was transferred into each single well of 384-well white microtiter plate (Greiner Bio One 781075). 1 μl of the inhibitor compound solution (dissolved in DMSO, at the corresponding concentration) or pure DMSO as a control was added to the same wells. The enzymatic reaction was initiated by addition of 25 μl of 20 μM solution of the FRET substrate ABZ-[…]-Lys (Dnp)-NH2; (ABZ-2-aminobenzoyl; DNP 2,4-dinitrophenyl; custom synthesis by Jerini Peptide Technologies, Berlin) in the reaction buffer. The microtiter plate was incubated for 60-120 min at the temperature of 32 C. The increase of fluorescence intensity was measured in appropriate fluorescence plate reader (e.g. TECAN Ultra) using excitation wavelength of 320 nm and emission wavelength of 420 nm. IC50 values were calculated from percentage of inhibition of human MASP1 activity as a function of test compound concentration.

[2] = molecular target: human MASP2 (Homo sapiens (Human), UniProt O00187); test: Biochemical human MASP2 assay (FRET substrate); conditions: Average IC50; recombinant human MASP2; read-out: human MASP2 IC50
Source text: The MASP1 or MASP2 expression vectors were transfected into the HEK293 (ATCC No. CRL-1573) cell line using Lipofectamine LTX® Reagent (Thermo-Fischer), as described by the manufacturer. The mature form of the recombinant human MASP1 and M[…] were secreted into the culture medium. The MASP1 and M[…] were purified from the conditioned media by affinity chromatography on Ni-NTA Superflow resin (Qiagen) as described by the manufacturer. 2.3 Biochemical Human MASP2 Assay […] The enzymatic reaction was initiated by addition of 25 μl of 60 μM solution of the FRET substrate DABCYL-[…]; […] The microtiter plate was incubated for 60-120 min at the temperature of 32 C. The increase of fluorescence intensity was measured in appropriate fluorescence plate reader (e.g. TECAN Ultra) using excitation wavelength of 340 nm and emission wavelength of 490 nm. IC50 values were calculated from percentage of inhibition of human MASP2 activity as a function of test compound concentration.

human MASP2, sequence (O00187 other isoform, or with tags, fused parts or gaps): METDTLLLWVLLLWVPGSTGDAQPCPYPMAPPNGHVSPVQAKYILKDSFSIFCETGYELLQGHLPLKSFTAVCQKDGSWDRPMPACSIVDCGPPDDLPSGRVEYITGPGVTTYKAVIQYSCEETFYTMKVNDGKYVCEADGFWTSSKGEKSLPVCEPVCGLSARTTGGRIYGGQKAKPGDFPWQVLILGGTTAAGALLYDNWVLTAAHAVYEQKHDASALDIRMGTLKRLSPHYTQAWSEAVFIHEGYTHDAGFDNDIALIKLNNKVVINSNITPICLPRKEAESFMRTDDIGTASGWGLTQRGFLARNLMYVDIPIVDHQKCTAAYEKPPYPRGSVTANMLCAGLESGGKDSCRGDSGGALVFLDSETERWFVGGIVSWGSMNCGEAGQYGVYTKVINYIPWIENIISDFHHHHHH
human MASP1, sequence (P48740 other isoform, or with tags, fused parts or gaps): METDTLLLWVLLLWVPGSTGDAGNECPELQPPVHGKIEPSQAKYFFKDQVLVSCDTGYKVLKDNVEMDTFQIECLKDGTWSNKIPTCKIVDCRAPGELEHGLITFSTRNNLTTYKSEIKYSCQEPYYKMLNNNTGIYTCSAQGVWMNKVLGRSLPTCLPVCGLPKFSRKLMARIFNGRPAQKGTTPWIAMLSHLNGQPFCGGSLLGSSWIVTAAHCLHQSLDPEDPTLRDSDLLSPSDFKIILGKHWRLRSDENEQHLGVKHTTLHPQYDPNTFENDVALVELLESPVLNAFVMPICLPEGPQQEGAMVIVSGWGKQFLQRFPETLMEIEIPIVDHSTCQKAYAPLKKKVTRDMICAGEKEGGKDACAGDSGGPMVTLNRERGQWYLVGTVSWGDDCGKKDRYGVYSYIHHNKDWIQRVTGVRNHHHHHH

SMILES | IC50 [1] [µM] | IC50 [2] [µM]
CC[C@@H]1NC(=O)CCCCCNC(=O)[C@H](CC(=O)O)NC(=O)[C@@H]2CCCN2C(=O)[C@H]([C@@H](C)CC)NC(=O)[C@H]2NC(=O)[C@H]([C@@H](C)CC)NC(=O)[C@@H]3CCCN3C(=O)[C@@H]3CCCN3C(=O)[C@H](CC(C)(C)C)NC(=O)[C@H](CO)NC(=O)[C@H](CCCNC(=N)N)NC(=O)[C@H](CO)NC(=O)[C@H](CSSC2(C)C)NC(=O)[C@H]([C@@H](C)CC)NC1=O [Example 38] (cyclo([Abu]ICSRS[tBuAla]PPI[Pen]IPD[Ahx]); disulfide 3-11) | 0.02 | 0.044
CC[C@H](C)[C@@H]1NC(=O)[C@@H](N)CCCNC(=O)[C@@H]2CCCN2C(=O)[C@H]([C@@H](C)CC)NC(=O)[C@H]2NC(=O)[C@H]([C@@H](C)CC)NC(=O)[C@@H]3CCCN3C(=O)[C@@H]3CCCN3C(=O)[C@H](CC(C)(C)C)NC(=O)[C@H](CO)NC(=O)[C@H](CCCNC(=N)N)NC(=O)[C@H](CO)NC(=O)[C@H](CSSC2(C)C)NC1=O [Example 71, N-{3-[(6S,9S,12S,15S,18R,21S,24S,29aS,35S,38R,41S,43aS,48aS)-24-amino-21,35,41-tri[(2S)-butan-2-yl]-6-(2,2-dimethylpropyl)-9,15-bis(hydroxymethyl)-49,49-dimethyl-5,8,11,14,17,20,23,29,34,37,40,43,48-tridecaoxohexatetracontahydro-1H,5H-18,38-(methanodithiomethano)tripyrrolo[2,1-c:2′,1′-o:2″,1″-r][1,4,7,10,13,16,19,22,25,28,31,34,37]tridecaazacyclodotetracontin-12-yl]propyl}guanidine] (H-[Orn]ICSRS[tBuAla]PPI[Pen]IP; lactam 1-C; disulfide 3-11) | 0.021 | 0.024
CC[C@H](C)[C@@H]1NC(=O)CNC(=O)CCCCCNC(=O)CC[C@@H](C(N)=O)NC(=O)[C@@H]2CCCN2C(=O)[C@H]([C@@H](C)CC)NC(=O)[C@H]2NC(=O)[C@H]([C@@H](C)CC)NC(=O)[C@@H]3C[C@@H]4CCCC[C@@H]4N3C(=O)[C@@H]3CCCN3C(=O)[C@H](CC(C)C)NC(=O)[C@H](CO)NC(=O)[C@H](CCCNC(=N)N)NC(=O)[C@H](CO)NC(=O)[C@H](CSSC2(C)C)NC1=O [Example 83] ([Ahx]GICSRSLP[Oic]I[Pen]IPE-NH2; disulfide 4-12; lactam N-15) | 0.018 | 0.091
CC[C@H](C)[C@@H]1NC(=O)CNC(=O)CN(C)C(=O)CCCCCNC(=O)CC[C@@H](C(N)=O)NC(=O)[C@@H]2CCCN2C(=O)[C@H]([C@@H](C)CC)NC(=O)[C@H]2NC(=O)[C@H]([C@@H](C)CC)NC(=O)[C@@H]3C[C@@H]4CCCC[C@@H]4N3C(=O)[C@@H]3CCCN3C(=O)[C@H](CC(C)C)NC(=O)[C@H](CO)NC(=O)[C@H](CCCNC(=N)N)NC(=O)[C@H](CO)NC(=O)[C@H](CSSC2(C)C)NC1=O [Example 76] ([Ahx][Sar]GICSRSLP[Oic]I[Pen]IPE-NH2; disulfide 5-13; lactam N-16) | 0.0097 | 0.18
CC[C@H](C)[C@@H]1NC(=O)[C@H](C)NC(=O)CCCCCNC(=O)CC[C@@H](C(N)=O)NC(=O)[C@@H]2CCCN2C(=O)[C@H]([C@@H](C)CC)NC(=O)[C@H]2NC(=O)[C@H]([C@@H](C)CC)NC(=O)[C@@H]3C[C@@H]4CCCC[C@@H]4N3C(=O)[C@@H]3CCCN3C(=O)[C@H](CC(C)C)NC(=O)[C@H](CO)NC(=O)[C@H](CCCNC(=N)N)NC(=O)[C@H](CO)NC(=O)[C@H](CSSC2(C)C)NC1=O [Example 74] ([Ahx]AICSRSLP[Oic]I[Pen]IPE-NH2; disulfide 4-12; lactam N-15) | 0.014 | 0.16
CC[C@H](C)[C@@H]1NC(=O)CNC(=O)[C@@H](N)CCCCNC(=O)[C@H](CC(=O)O)NC(=O)[C@@H]2CCCN2C(=O)[C@H]([C@@H](C)CC)NC(=O)[C@@H]2CSSC[C@H](NC1=O)C(=O)N[C@@H](CO)C(=O)N[C@@H](CCCNC(=N)N)C(=O)N[C@@H](CO)C(=O)N[C@@H](CC(C)C)C(=O)N1CCC[C@H]1C(=O)N1CCC[C@H]1C(=O)N[C@@H]([C@@H](C)CC)C(=O)N2 [Example 22] (H-KGICSRSLPPICIPD; lactam 1-C; disulfide 4-12) | 0.19 | 0.091
CC[C@H](C)[C@@H]1NC(=O)[C@H](C)NC(=O)CCCCCNC(=O)[C@@H]2CCCN2C(=O)[C@H]([C@@H](C)CC)NC(=O)[C@@H]2CSSC[C@H](NC1=O)C(=O)N[C@@H](CO)C(=O)N[C@@H](CCCNC(=N)N)C(=O)N[C@@H](CO)C(=O)N[C@@H](CC(C)C)C(=O)N1CCC[C@H]1C(=O)N1[C@@H](C[C@@H]3CCCC[C@@H]31)C(=O)N[C@@H]([C@@H](C)CC)C(=O)N2 [Example 25] (cyclo(AICSRSLP[Oic]ICIP[Ahx]); disulfide 3-11) | 0.06 | 0.61
CC[C@H](C)[C@@H]1NC(=O)CNC(=O)CCCCCNC(=O)C[C@@H](C(N)=O)NC(=O)[C@@H]2CCCN2C(=O)[C@H]([C@@H](C)CC)NC(=O)[C@H]2NC(=O)[C@H]([C@@H](C)CC)NC(=O)[C@@H]3CCCN3C(=O)[C@@H]3CCCN3C(=O)[C@H](CC(C)(C)C)NC(=O)[C@H](CO)NC(=O)[C@H](CCCNC(=N)N)NC(=O)[C@H](CO)NC(=O)[C@H](CSSC2(C)C)NC1=O [Example 48] ([Ahx]GICSRS[tBuAla]PPI[Pen]IPD-NH2; disulfide 4-12; lactam N-15) | 0.01 | 0.07
CC[C@H](C)[C@@H]1NC(=O)[C@H](C)NC(=O)CCC(=O)NCCCOCCOCCOCCCNC(=O)[C@H](CC(=O)O)NC(=O)[C@@H]2CCCN2C(=O)[C@H]([C@@H](C)CC)NC(=O)[C@H]2NC(=O)[C@H]([C@@H](C)CC)NC(=O)[C@@H]3CCCN3C(=O)[C@@H]3CCCN3C(=O)[C@H](CC(C)(C)C)NC(=O)[C@H](CO)NC(=O)[C@H](CCCNC(=N)N)NC(=O)[C@H](CO)NC(=O)[C@H](CSSC2(C)C)NC1=O [Example 63] (AICSRS[tBuAla]PPI[Pen]IPD; disulfide 3-11; linker N-C via X6) | 0.028 | 0.17
CC[C@H](C)[C@@H]1NC(=O)CNC(=O)CNC(=O)[C@H](C)NC(=O)[C@H](CC(=O)O)NC(=O)[C@@H]2CCCN2C(=O)[C@H]([C@@H](C)CC)NC(=O)[C@@H]2CSSC[C@H](NC1=O)C(=O)N[C@@H](CO)C(=O)N[C@@H](CCCNC(=N)N)C(=O)N[C@@H](CO)C(=O)N[C@@H](CC(C)C)C(=O)N1CCC[C@H]1C(=O)N1CCC[C@H]1C(=O)N[C@@H]([C@@H](C)CC)C(=O)N2 [Example 18] (cyclo(AGGICSRSLPPICIPD); disulfide 5-13) | 0.05 | 0.015
CC[C@H](C)[C@@H]1NC(=O)CNC(=O)CNC(=O)[C@@H](C)NC(=O)[C@H](CC(=O)O)NC(=O)[C@@H]2CCCN2C(=O)[C@H]([C@@H](C)CC)NC(=O)[C@@H]2CSSC[C@H](NC1=O)C(=O)N[C@@H](CO)C(=O)N[C@@H](CCCNC(=N)N)C(=O)N[C@@H](CO)C(=O)N[C@@H](CC(C)C)C(=O)N1CCC[C@H]1C(=O)N1CCC[C@H]1C(=O)N[C@@H]([C@@H](C)CC)C(=O)N2 [Example 19] (cyclo(CIPD[dA]GGICSRSLPPI); disulfide 1-9) | 0.049 | 0.21
CC[C@H](C)[C@@H]1NC(=O)CNC(=O)CNC(=O)[C@H](C)NC(=O)[C@@H](CC(=O)O)NC(=O)[C@@H]2CCCN2C(=O)[C@H]([C@@H](C)CC)NC(=O)[C@@H]2CSSC[C@H](NC1=O)C(=O)N[C@@H](CO)C(=O)N[C@@H](CCCNC(=N)N)C(=O)N[C@@H](CO)C(=O)N[C@@H](CC(C)C)C(=O)N1CCC[C@H]1C(=O)N1CCC[C@H]1C(=O)N[C@@H]([C@@H](C)CC)C(=O)N2 [Example 17] (cyclo(AGGICSRSLPPICIP[dD]); disulfide 5-13) | 0.026 | 0.088
CC[C@H](C)[C@@H]1NC(=O)CNC(=O)CNC(=O)[C@H](C)NC(=O)C[C@@H](C(N)=O)NC(=O)[C@@H]2CCCN2C(=O)[C@H]([C@@H](C)CC)NC(=O)[C@H]2NC(=O)[C@H]([C@@H](C)CC)NC(=O)[C@@H]3C[C@@H]4CCCC[C@@H]4N3C(=O)[C@@H]3CCCN3C(=O)[C@H](CC(C)C)NC(=O)[C@H](CO)NC(=O)[C@H](CCCNC(=N)N)NC(=O)[C@H](CO)NC(=O)[C@H](CSSC2(C)C)NC1=O [Example 42] (AGGICSRSLP[Oic]I[Pen]IPD-NH2; disulfide 5-13; lactam N-16) | 0.013 | 0.2
